Values after ≈ are worked out from the molar mass of the structure shown.
Key:
[1] = test system: Clostridium tetani; test: Antibacterial activity against Clostridium tetani; type: functional
[2] = test system: Aspergillus niger; test: Antifungal activity against Aspergillus niger; type: functional
[3] = test system: Bacillus subtilis; test: Antibacterial activity against Bacillus subtilis; type: functional
[4] = test system: Plasmodium falciparum; test: Antiplasmodial activity against Plasmodium falciparum; type: functional, organism-based
[5] = test system: Trichophyton rubrum; test: Antifungal activity against Trichophyton rubrum; type: functional
[6] = test system: Streptococcus pneumoniae; test: Antibacterial activity against Streptococcus pneumoniae; type: functional
[7] = test system: Escherichia coli; test: Antibacterial activity against Escherichia coli; type: functional
[8] = test system: Staphylococcus aureus; test: Antibacterial activity against Staphylococcus aureus; type: functional
[9] = test system: Candida albicans; test: Antifungal activity against Candida albicans; type: functional
[10] = test system: Escherichia coli; test: Antibacterial activity against Escherichia coli assessed as zone of inhibition; type: functional
[11] = test system: Bacillus subtilis; test: Antibacterial activity against Bacillus subtilis assessed as zone of inhibition; type: functional
[12] = test system: Salmonella typhimurium; test: Antibacterial activity against Salmonella typhimurium assessed as zone of inhibition; type: functional, Salmonella enterica subsp. enterica serovar Typhimurium
[13] = test system: Staphylococcus aureus; test: Antibacterial activity against Staphylococcus aureus assessed as zone of inhibition; type: functional
[14] = test system: Bacillus subtilis; test: Antibacterial activity against Bacillus subtilis incubated for 18 hrs post 30 mins pre-diffusion by disk diffusion method; type: functional
[15] = test system: Listeria innocua; test: Antibacterial activity against Listeria innocua incubated for 18 hrs post 30 mins pre-diffusion by disk diffusion method; type: functional
[16] = test system: Escherichia coli; test: Antibacterial activity against Escherichia coli incubated for 18 hrs post 30 mins pre-diffusion by disk diffusion method; type: functional
[17] = test system: Micrococcus luteus; test: Antibacterial activity against Micrococcus luteus incubated for 18 hrs post 30 mins pre-diffusion by disk diffusion method; type: functional
[18] = test system: Pseudomonas aeruginosa; test: Antibacterial activity against Pseudomonas aeruginosa ATCC 27853 after 24 hrs by broth microdilution method; type: functional; conditions: ATCC 27853, 24 h
[19] = test system: Listeria monocytogenes; test: Potency index, ratio of ciprofloxacin MIC to test compound MIC for Listeria monocytogenes ATCC 35152 after 24 hrs by broth microdilution method; type: functional
[20] = test system: Listeria monocytogenes; test: Antibacterial activity against Listeria monocytogenes ATCC 35152 after 24 hrs by broth microdilution method; type: functional; conditions: ATCC 35152, 24 h
[21] = test system: Pseudomonas aeruginosa; test: Potency index, ratio of ciprofloxacin MIC to test compound MIC for Pseudomonas aeruginosa ATCC 27853 after 24 hrs by broth microdilution method; type: functional
[22] = test system: Staphylococcus aureus; test: Antibacterial activity against methicillin-resistant Staphylococcus aureus incubated for 18 hrs post 30 mins pre-diffusion by disk diffusion method; type: functional
[23] = test system: Bacillus anthracis; test: Antibacterial activity against Bacillus anthracis incubated for 18 hrs post 30 mins pre-diffusion by disk diffusion method; type: functional
[24] = test system: Pseudomonas aeruginosa; test: Antibacterial activity against Pseudomonas aeruginosa; type: functional
[25] = test system: Bacillus cereus; test: Antibacterial activity against Bacillus cereus ATCC 10876 after 24 hrs by microdilution method; type: functional; conditions: ATCC 10876, 24 h
[26] = test system: Escherichia coli; test: Antibacterial activity against Escherichia coli ATCC 25922 after 24 hrs by microdilution method; type: functional; conditions: ATCC 25922, 24 h
[27] = test system: Enterococcus faecalis; test: Antibacterial activity against Enterococcus faecalis ATCC 29212 after 24 hrs by microdilution method; type: functional; conditions: ATCC 29212, 24 h
[28] = test system: Staphylococcus aureus; test: Antibacterial activity against Staphylococcus aureus ATCC 25923 after 24 hrs by microdilution method; type: functional; conditions: ATCC 25923, 24 h
[29] = test system: Candida albicans; test: Antifungal activity against Candida albicans ATCC 50193 after 24 hrs by microdilution method; type: functional; conditions: ATCC 50193, 24 h
[30] = test system: Pseudomonas aeruginosa; test: Antibacterial activity against Pseudomonas aeruginosa ATCC 27853 after 24 hrs by microdilution method; type: functional; conditions: ATCC 27853, 24 h
[31] = test system: Aspergillus brasiliensis; test: Antifungal activity against Aspergillus brasiliensis ATCC 16404 after 24 hrs by microdilution method; type: functional; conditions: ATCC 16404, 24 h
[32] = test system: Proteus mirabilis; test: Antibacterial activity against Proteus mirabilis ATCC 35659 after 24 hrs by microdilution method; type: functional; conditions: ATCC 35659, 24 h

Structure (SMILES): Cc1nn(-c2ccccc2)c(-n2cncn2)c1-c1cc(-c2ccc(F)cc2)nc2nc3ccccc3n12
- MIC [1]: 62.5 to 125 µg/mL (≈ 128 to 257 µM)
- MIC [2]: 100 to 500 µg/mL (≈ 206 to 1030 µM)
- MIC [3]: 62.5 to 125 µg/mL (≈ 128 to 257 µM)
- IC50 [4]: 0.041 µg/mL (≈ 0.0843 µM)
- MIC [5]: 100 to 500 µg/mL (≈ 206 to 1030 µM)
- MIC [6]: 62.5 to 125 µg/mL (≈ 128 to 257 µM)
- MIC [7]: 62.5 to 125 µg/mL (≈ 128 to 257 µM)
- MIC [8]: 62.5 to 125 µg/mL (≈ 128 to 257 µM)
- MIC [9]: 100 to 500 µg/mL (≈ 206 to 1030 µM)

Structure (SMILES): N#Cc1ccc(-c2nc(-c3ccccc3)c(-c3ccccc3)n2-n2c(-c3ccc(Cl)cc3)n[nH]c2=S)cc1
- inhibition zone (IZ) [10]: 10 - 18 mm
- inhibition zone (IZ) [11]: 10 - 18 mm
- inhibition zone (IZ) [12]: 10 - 18 mm
- inhibition zone (IZ) [13]: 10 - 18 mm

Structure (SMILES): COC(=O)c1ncn(CN(Cn2cnc(C(=O)OC)n2)C(C)C)n1
- MIC [14]: 7 to 15 µg/mL (≈ 20.8 to 44.5 µM)
- MIC [15]: 7 to 15 µg/mL (≈ 20.8 to 44.5 µM)
- MIC [16]: 7 to 15 µg/mL (≈ 20.8 to 44.5 µM)
- MIC [17]: 7 to 15 µg/mL (≈ 20.8 to 44.5 µM)

Structure (SMILES): Cn1cnc(CN(CCCO)Cc2ncn(C)n2)n1
- MIC [14]: 7 to 15 µg/mL (≈ 26.4 to 56.5 µM)
- MIC [15]: 7 to 15 µg/mL (≈ 26.4 to 56.5 µM)
- MIC [16]: 7 to 15 µg/mL (≈ 26.4 to 56.5 µM)
- MIC [17]: 7 to 15 µg/mL (≈ 26.4 to 56.5 µM)

Structure (SMILES): S=c1[nH]nc(-c2ccc(Cl)cc2)n1-n1c(-c2ccc(Br)cc2)nc(-c2ccccc2)c1-c1ccccc1
- inhibition zone (IZ) [10]: 10 - 18 mm
- inhibition zone (IZ) [11]: 10 - 18 mm
- inhibition zone (IZ) [12]: 10 - 18 mm
- inhibition zone (IZ) [13]: 10 - 18 mm

Structure (SMILES): Cn1cnc(CNCc2ncn(C)n2)n1
- MIC [14]: 7 to 15 µg/mL (≈ 33.8 to 72.4 µM)
- MIC [15]: 7 to 15 µg/mL (≈ 33.8 to 72.4 µM)
- MIC [16]: 7 to 15 µg/mL (≈ 33.8 to 72.4 µM)
- MIC [17]: 7 to 15 µg/mL (≈ 33.8 to 72.4 µM)

Structure (SMILES): Cc1nc(-c2ccccc2)sc1-c1nnc(S)n1/N=C/c1ccc(N(C)C)cc1
- MIC [18]: 1.95 µg/mL (≈ 4.64 µM)
- Ratio [19]: 2
- MIC [20]: 1.95 µg/mL (≈ 4.64 µM)
- Ratio [21]: 2

Structure (SMILES): CC[C@H]1OC(=O)[C@H](C)[C@@H](O[C@H]2C[C@@](C)(OC)[C@@H](O)[C@H](C)O2)[C@H](C)[C@@H](O[C@@H]2O[C@H](C)C[C@H](N(C)C)[C@H]2O)[C@](C)(O)C[C@@H](C)C(=O)[C@H](C)[C@@H](O)[C@]1(C)O [ERYTHROMYCIN]
- MIC [22]: 31 to 1000 µg/mL (≈ 42.2 to 1360 µM)
- MIC [23]: 31 to 1000 µg/mL (≈ 42.2 to 1360 µM)

Structure (SMILES): COc1cccc(/C=N/n2c(S)nnc2-c2sc(-c3ccccc3)nc2C)c1
- MIC [18]: 1.95 µg/mL (≈ 4.78 µM)
- Ratio [19]: 2
- MIC [20]: 1.95 µg/mL (≈ 4.78 µM)
- Ratio [21]: 2

Structure (SMILES): Fc1ccc(-c2nc(-c3ccccc3)c(-c3ccccc3)n2-n2c(-c3ccc(Cl)cc3)n[nH]c2=S)cc1
- inhibition zone (IZ) [10]: 10 - 18 mm
- inhibition zone (IZ) [11]: 10 - 18 mm
- inhibition zone (IZ) [12]: 10 - 18 mm
- inhibition zone (IZ) [13]: 10 - 18 mm

Structure (SMILES): COC(=O)c1ncn(CN(CCCO)Cn2cnc(C(=O)OC)n2)n1
- MIC [14]: 7 to 15 µg/mL (≈ 19.8 to 42.5 µM)
- MIC [15]: 7 to 15 µg/mL (≈ 19.8 to 42.5 µM)
- MIC [16]: 7 to 15 µg/mL (≈ 19.8 to 42.5 µM)
- MIC [17]: 7 to 15 µg/mL (≈ 19.8 to 42.5 µM)

Structure (SMILES): CC1(C)S[C@@H]2[C@H](NC(=O)[C@H](N)c3ccccc3)C(=O)N2[C@H]1C(=O)O [AMPICILLIN]
- MIC [1]: 100 to 250 µg/mL (≈ 286 to 715 µM)
- MIC [3]: 100 to 250 µg/mL (≈ 286 to 715 µM)
- MIC [6]: 100 to 250 µg/mL (≈ 286 to 715 µM)
- MIC [22]: 31 to 1000 µg/mL (≈ 88.7 to 2860 µM)
- MIC [24]: 10.2 µg/mL (≈ 29.2 µM)
- MIC [23]: 31 to 1000 µg/mL (≈ 88.7 to 2860 µM)
- MIC [7]: 100 to 250 µg/mL (≈ 286 to 715 µM)
- MIC [8]: 10.9 µg/mL (≈ 31.2 µM)

Structure (SMILES): CCCCCCCCCCCCn1nnc(-c2n[nH]c(=S)n2-c2ccccc2)c1-c1n[nH]c(=S)n1-c1ccccc1
- MIC [25]: 1 to 128 µg/mL (≈ 1.7 to 218 µM)
- MIC [26]: 1 to 128 µg/mL (≈ 1.7 to 218 µM)
- MIC [27]: 1 to 128 µg/mL (≈ 1.7 to 218 µM)
- MIC [28]: 1 to 128 µg/mL (≈ 1.7 to 218 µM)
- MIC [29]: 1 to 128 µg/mL (≈ 1.7 to 218 µM)
- MIC [30]: 1 to 128 µg/mL (≈ 1.7 to 218 µM)
- MIC [31]: 1 to 128 µg/mL (≈ 1.7 to 218 µM)
- MIC [32]: 1 to 128 µg/mL (≈ 1.7 to 218 µM)

Structure (SMILES): NC[C@H]1O[C@H](O[C@H]2[C@H](O)[C@@H](O[C@H]3O[C@H](CO)[C@@H](O)[C@H](N)[C@H]3O)[C@H](N)C[C@@H]2N)[C@H](O)[C@@H](O)[C@@H]1O [KANAMYCIN]
- MIC [22]: 31 to 1000 µg/mL (≈ 64 to 2060 µM)
- MIC [23]: 31 to 1000 µg/mL (≈ 64 to 2060 µM)

Structure (SMILES): CCn1cc(C(=O)O)c(=O)c2cc(F)c(N3CCNCC3)cc21 [NORFLOXACIN]
- MIC [2]: 10.2 µg/mL (≈ 31.9 µM)
- MIC [22]: 31 to 1000 µg/mL (≈ 97.1 to 3130 µM)
- MIC [24]: 11.7 µg/mL (≈ 36.6 µM)
- MIC [23]: 31 to 1000 µg/mL (≈ 97.1 to 3130 µM)
- MIC [8]: 14.1 µg/mL (≈ 44.2 µM)
- MIC [9]: 7.8 µg/mL (≈ 24.4 µM)

Structure (SMILES): O=C(O)c1cn(C2CC2)c2cc(N3CCNCC3)c(F)cc2c1=O [CIPROFLOXACIN]
- MIC [25]: 1 to 8 µg/mL (≈ 3.02 to 24.1 µM)
- MIC [26]: 1 to 8 µg/mL (≈ 3.02 to 24.1 µM)
- MIC [27]: 1 to 8 µg/mL (≈ 3.02 to 24.1 µM)
- MIC [18]: 3.9 µg/mL (≈ 11.8 µM)
- MIC [28]: 1 to 8 µg/mL (≈ 3.02 to 24.1 µM)
- MIC [29]: 1 to 8 µg/mL (≈ 3.02 to 24.1 µM)
- MIC [30]: 1 to 8 µg/mL (≈ 3.02 to 24.1 µM)
- MIC [20]: 3.9 µg/mL (≈ 11.8 µM)
- MIC [31]: 1 to 8 µg/mL (≈ 3.02 to 24.1 µM)
- MIC [32]: 1 to 8 µg/mL (≈ 3.02 to 24.1 µM)

Structure (SMILES): CCCCCCCCCCCCn1nnc(-c2n[nH]c(=S)n2N)c1-c1n[nH]c(=S)n1N
- MIC [25]: 1 to 128 µg/mL (≈ 2.15 to 275 µM)
- MIC [26]: 1 to 128 µg/mL (≈ 2.15 to 275 µM)
- MIC [27]: 1 to 128 µg/mL (≈ 2.15 to 275 µM)
- MIC [28]: 1 to 128 µg/mL (≈ 2.15 to 275 µM)
- MIC [29]: 1 to 128 µg/mL (≈ 2.15 to 275 µM)
- MIC [30]: 1 to 128 µg/mL (≈ 2.15 to 275 µM)
- MIC [31]: 1 to 128 µg/mL (≈ 2.15 to 275 µM)
- MIC [32]: 1 to 128 µg/mL (≈ 2.15 to 275 µM)

Reference: ChEMBL document CHEMBL4346715, “Antibacterial activity study of 1,2,4-triazole derivatives” (Eur J Med Chem, 2019)
